Calls of active or inactive are those of the source. The rule behind the calls is not given here.
Biological target: Influenza A virus M2 proton channel (A/TW/4845/1999 H1N1)
Experiment: M2 proton channel binding, NMR based, influenza A virus H1N1 strain (AID 1549)
Details: NMR binding screen, M2 protein

With `CC(=O)O[C@@H]1CC2C(C)(C)[C@H](O)C=C[C@]2(C)C2CC[C@]3(C)C(=CC(=O)O[C@H]3c3ccoc3)[C@@]21C` (stereo partly drawn) the Kd was > 4 mM (inactive).
For `C[C@H]1CCCC(=O)CCC/C=C/c2cc(O)cc(O)c2C(=O)O1`, the Kd was > 4 mM (inactive).
`CCN1C(=O)c2cccc3c(S(N)(=O)=O)ccc1c23` was tested, and the Kd was > 4 mM (inactive).
`C=CCc1ccc2c(c1)OCO2` was tested, and the Kd was > 4 mM (inactive).
`CC(C)=CCc1c(O)cc2occ(-c3ccc4c(c3)OCO4)c(=O)c2c1O` was tested, and the Kd was > 4 mM (inactive).
For `S=c1[nH]cnc2sccc12`, the Kd was > 4 mM (inactive).
For `Cn1nc(C(=O)NC2CCCCC2)c2ccccc2c1=O`, the Kd was > 4 mM (inactive).
`CC1CCc2cc(F)ccc2N1C(=O)c1ccc(=O)[nH]n1` (stereo not drawn) was tested, and the Kd was > 4 mM (inactive).
`CN(C)S(=O)(=O)NCc1ccc2c(c1)OCO2` was tested, and the Kd was > 4 mM (inactive).
`Cc1oc(S(=O)(=O)N2CCCCC2)cc1C(=O)O` was tested, and the Kd was > 4 mM (inactive).
In the case of `CC(C)CCCC(C)C1CCC2C3CC(=O)[C@H]4C[C@@H](O)CC[C@]4(C)C3CC[C@]12C` (stereo partly drawn), the Kd is reported as > 4 mM (inactive).
In the case of `Cc1cccc(C)c1NC(=O)CN1CCOCC1`, the Kd is reported as > 4 mM (inactive).
With `O=C(NC1=NCCS1)c1ccc(Cl)s1` the Kd was > 4 mM (inactive).
`Cc1noc(-c2ccccc2)c1C(=O)O` was tested, and the Kd was > 4 mM (inactive).
`C=C[C@@](C)(O)CCC1C(=C)CCC2[C@@](C)(CO)CCC[C@]12C` (stereo partly drawn) was tested, and the Kd was > 4 mM (inactive).
`S=C(Cc1cccnc1)N1CCOCC1` was tested, and the Kd was > 4 mM (inactive).
For `COc1cc([C@@H]2c3cc4c(c(O)c3C[C@H]3COC(=O)[C@@H]32)OCO4)cc(OC)c1OC`, the Kd was > 4 mM (inactive).
`Cc1cc(N)no1` was tested, and the Kd was > 4 mM (inactive).
For `O=C(NCCO)c1ccccc1I`, the Kd was > 4 mM (inactive).
For `OCc1ccccc1O[C@@H]1O[C@H](CO)[C@@H](O)[C@H](O)[C@H]1O`, the Kd was > 4 mM (inactive).
For `CN1C(=O)c2ccc(N3CCCC3)cc2C1=O`, the Kd was > 4 mM (inactive).
With `O=P(c1ccccc1)(c1ccccc1)C1CCOCC1` the Kd was > 4 mM (inactive).
For `Cc1nc(NC2=NCCC(=O)N2)nc2ccccc12`, the Kd was > 4 mM (inactive).
For `O=C(O)Cn1cc(C(F)(F)F)ccc1=O`, the Kd was > 4 mM (inactive).
For `COC(=O)c1ccccc1NC(=O)c1cc[n+]([O-])cc1`, the Kd was > 4 mM (inactive).
In the case of `CNC(=O)COc1cccc2c1CCNC2=O`, the Kd is reported as > 4 mM (inactive).
In the case of `CCOC(=O)c1c(C)cc(OC)cc1O`, the Kd is reported as > 4 mM (inactive).
With `O=c1oc2c(O)c(O)cc3c(=O)oc4c(O)c(O)cc1c4c23` the Kd was > 4 mM (inactive).
With `O=C(CCc1ccc(O)cc1)c1c(O)cc(O)cc1O` the Kd was > 4 mM (inactive).
For `COC(=O)C[C@H]1C(C)(C)C(=O)[C@@H]2CC3=C4CC(=O)O[C@@H](c5ccoc5)[C@]4(C)CCC3C1(C)C2=O` (stereo partly drawn), the Kd was > 4 mM (inactive).
For `NC(=O)C1CC2C=CC1C2` (stereo not drawn), the Kd was > 4 mM (inactive).
In the case of `c1ccc2[nH]c(-c3cscn3)nc2c1`, the Kd is reported as > 4 mM (inactive).
`CCc1noc(C)c1C(=O)N1CCOCC1` was tested, and the Kd was > 4 mM (inactive).
For `Cc1cc(C)n(-c2cccc3cccnc23)n1`, the Kd was > 4 mM (inactive).
With `CCOC(=O)c1cnc2n(c1=O)CCS2` the Kd was > 4 mM (inactive).
`O=C(O)C1Cc2c([nH]c3ccccc23)CN1` (stereo not drawn) was tested, and the Kd was > 4 mM (inactive).
For `COc1ccccc1-c1noc(-c2ccncc2)n1`, the Kd was > 4 mM (inactive).
In the case of `Cc1cc(=O)cc(C)n1NC(N)=S`, the Kd is reported as > 4 mM (inactive).
With `COc1ccc(NC(=O)c2ccc[n+]([O-])c2)cc1` the Kd was > 4 mM (inactive).
In the case of `CCSc1nc2ccccc2n1CC(N)=O`, the Kd is reported as > 4 mM (inactive).
For `OCc1ncoc1-c1ccccc1`, the Kd was > 4 mM (inactive).
For `OCC1Cc2ccccc2CN1` (stereo not drawn), the Kd was > 4 mM (inactive).
With `CC(=O)Nc1ccn(Cc2c(F)cccc2Cl)n1` the Kd was > 4 mM (inactive).
For `O=C(O)CCC(=O)c1c[nH]c2ccccc12`, the Kd was > 4 mM (inactive).
With `OC1CCNC2CCCCC12` (stereo not drawn) the Kd was > 4 mM (inactive).
In the case of `CC(C)=CCc1c2c(c3occ(-c4ccc(O)cc4)c(=O)c3c1O)C=CC(C)(C)O2`, the Kd is reported as > 4 mM (inactive).
For `O=C(NC(=S)NCCO)c1ccccc1`, the Kd was > 4 mM (inactive).
With `O=c1c2ccccc2[nH]c2ncccc12` the Kd was > 4 mM (inactive).
`COc1ccc(-c2cn[nH]c2N)c(OC)c1` was tested, and the Kd was > 4 mM (inactive).
In the case of `Cc1cc(C(=O)Nc2sc(C)c(C)c2C#N)no1`, the Kd is reported as > 4 mM (inactive).
With `C/C=C(/C)C(=O)O[C@H]1CC[C@@]2(C)[C@@H]3CC[C@H]4[C@]5(O)C[C@H](O)[C@@]6(O)[C@@H](CN7C[C@@H](C)CC[C@H]7[C@@]6(C)O)[C@]5(O)C[C@@]42OC13O` the Kd was > 4 mM (inactive).
For `CC(C)CC(=O)NC1CCSC1=O` (stereo not drawn), the Kd was > 4 mM (inactive).
`OCc1cccs1` was tested, and the Kd was > 4 mM (inactive).
With `CC1(C)C(=O)[C@@H]2C[C@@]3(O)C4=CC(=O)O[C@@H](c5ccoc5)[C@]4(C)CCC3C(C)(C2=O)[C@H]1CC(=O)O` (stereo partly drawn) the Kd was > 4 mM (inactive).
With `NC(=O)Nc1cccc(C(F)(F)F)c1` the Kd was > 4 mM (inactive).
In the case of `O=C(c1ccccc1-c1ccccc1)N1CCOCC1`, the Kd is reported as > 4 mM (inactive).
`CC(=O)N1CN(C(C)=O)CN(C(C)=O)C1` was tested, and the Kd was > 4 mM (inactive).
With `O=C(C1CCC(C(=O)N2CCCC2)CC1)N1CCCC1` (stereo not drawn) the Kd was > 4 mM (inactive).
`CN1C(=O)c2ccc(C(=O)NCc3ccccc3)cc2C1=O` was tested, and the Kd was > 4 mM (inactive).
In the case of `COC(=O)CC1NC2CCCCC2NC1=O` (stereo not drawn), the Kd is reported as > 4 mM (inactive).
With `OCCNc1ccccn1` the Kd was > 4 mM (inactive).
`Clc1ccc(-c2nnc3ccccn23)cc1` was tested, and the Kd was > 4 mM (inactive).
In the case of `O=C1CCC(=O)N1c1ccc(F)cc1`, the Kd is reported as > 4 mM (inactive).
With `O=C(O)CCC(=O)Nc1nnc(C(F)(F)F)s1` the Kd was > 4 mM (inactive).
For `O=c1[nH]oc2ccccc12`, the Kd was > 4 mM (inactive).
In the case of `COc1ccc(-c2coc3cc(OC)cc(OC)c3c2=O)cc1`, the Kd is reported as > 4 mM (inactive).
For `COc1c2ccoc2nc2c(OC)c(OCC(O)C(C)(C)O)ccc12` (stereo not drawn), the Kd was > 4 mM (inactive).
In the case of `Cc1ccc2nc(SCC(=O)O)nc(C)c2c1`, the Kd is reported as > 4 mM (inactive).
For `Cc1cc(O)cc(O)c1C(=O)O`, the Kd was > 4 mM (inactive).
`CCNC(=S)NS(=O)(=O)c1ccccc1` was tested, and the Kd was > 4 mM (inactive).
`CC(=O)c1cc(C)ccc1O` was tested, and the Kd was > 4 mM (inactive).
In the case of `Nc1ncnc2c1ncn2CCN1CCCCC1`, the Kd is reported as > 4 mM (inactive).
With `CS(C)=C1C(=O)NC(=O)N(c2ccccc2)C1=O` the Kd was > 4 mM (inactive).
For `O=C1CCCC2C3CC(CN12)[C@@H]1CCCCN1C3` (stereo partly drawn), the Kd was > 4 mM (inactive).
With `CC(C)(C)NC(=O)N1CCC(C(N)=O)CC1` the Kd was > 4 mM (inactive).
`O=C(O)c1onc2ccccc12` was tested, and the Kd was > 4 mM (inactive).
For `Nc1ccc(CN2CCS(=O)(=O)CC2)cc1`, the Kd was > 4 mM (inactive).
In the case of `CP(C)(=O)CCC(=O)O`, the Kd is reported as > 4 mM (inactive).
For `S=C=NCc1ccccc1`, the Kd was > 4 mM (inactive).
For `CSc1ccccc1C(=O)N1CCOCC1`, the Kd was > 4 mM (inactive).
In the case of `CCOC(=O)CNc1ncnc2c1nnn2CC`, the Kd is reported as > 4 mM (inactive).
In the case of `O=C(CSc1nnc2ccccn12)N1CCOCC1`, the Kd is reported as > 4 mM (inactive).
In the case of `CN1C(=O)N(C)C2NC(=O)NC21` (stereo not drawn), the Kd is reported as > 4 mM (inactive).
In the case of `C=C(C)[C@H]1COc2cc3oc(=O)ccc3cc2O1`, the Kd is reported as > 4 mM (inactive).
For `Cc1n[nH]c(=O)nc1N1CCN(c2ccccc2)CC1`, the Kd was > 4 mM (inactive).
`O=C1CCC(=O)N1c1cccnc1` was tested, and the Kd was > 4 mM (inactive).
`Cc1cc(NC(=O)CCCn2cnc([N+](=O)[O-])n2)no1` was tested, and the Kd was > 4 mM (inactive).
In the case of `O=C(OCc1c(F)cccc1Cl)c1cnccn1`, the Kd is reported as > 4 mM (inactive).
With `[O-][n+]1onc2c1CCc1c-2nn(-c2ccccc2)[n+]1[O-]` the Kd was > 4 mM (inactive).
`O=C1CCCC(=O)N1c1ccc(O)cc1` was tested, and the Kd was > 4 mM (inactive).
In the case of `COCc1nn2c(N)c(C#N)cnc2c1-c1ccccc1`, the Kd is reported as > 4 mM (inactive).
With `NC(=O)c1cccc(N2C(=O)C=CC2=O)c1` the Kd was > 4 mM (inactive).
`O=C(Nc1ccon1)c1csc2ccccc12` was tested, and the Kd was > 4 mM (inactive).
In the case of `CCNCC(O)c1ccc([N+](=O)[O-])cc1` (stereo not drawn), the Kd is reported as > 4 mM (inactive).
With `CCOC(=O)c1cnc2sccn2c1=O` the Kd was > 4 mM (inactive).
In the case of `O=C(O)C12CC3CC(CC(O)(C3)C1)C2`, the Kd is reported as > 4 mM (inactive).
With `COC(=O)CC1C(C)(C)C(OC(C)=O)[C@@H]2[C@@H](OC(C)=O)[C@]34O[C@@]2(O)[C@]1(C)C3CC[C@]1(C)C4=CC(=O)O[C@H]1c1ccoc1` (stereo partly drawn) the Kd was > 4 mM (inactive).
`CCCc1ncc(C(O)c2cccc3ccccc23)n1C` (stereo not drawn) was tested, and the Kd was > 4 mM (inactive).
For `Cc1nc2ccc(C(=O)O)cc2nc1C`, the Kd was > 4 mM (inactive).
For `Nc1cccc(C(=O)Nc2ccc(N)cc2Cl)c1`, the Kd was > 4 mM (inactive).
With `COc1cc2c(cc1OC)[C@@H]1C(=O)c3ccc4c(c3O[C@@H]1CO2)C=CC(C)(C)O4` the Kd was > 4 mM (inactive).
`C=CCn1c(N)c(C(=O)N2CCOCC2)sc1=S` was tested, and the Kd was > 4 mM (inactive).
In the case of `Cc1cc(C)nc(/N=C(/N)N2CCC(C(N)=O)CC2)n1`, the Kd is reported as > 4 mM (inactive).
For `O=C(Nc1ccc(Cl)cc1)N1CCCC1`, the Kd was > 4 mM (inactive).
For `Cn1c(=O)n(CC(=O)N2CCOCC2)c2ccccc21`, the Kd was > 4 mM (inactive).
With `COc1ccc(N=C2NC(=O)CS2)cc1` the Kd was > 4 mM (inactive).
For `C=C1CCC2C(CC2(C)C)C(=O)CCC1O` (stereo not drawn), the Kd was > 4 mM (inactive).
For `Cc1cc(NC(=O)c2ccccc2C(=O)O)no1`, the Kd was > 4 mM (inactive).
For `O=C(O)CC(O)c1nc2ccccc2[nH]1` (stereo not drawn), the Kd was > 4 mM (inactive).
`COc1cccc(NC(=O)c2cccs2)c1` was tested, and the Kd was > 4 mM (inactive).
With `Cc1nc2ccccc2c(=O)n1/N=C/c1ccncc1` the Kd was > 4 mM (inactive).
For `c1ccc(CNc2ncnc3nc[nH]c23)nc1`, the Kd was > 4 mM (inactive).
For `O=C1NC(=O)C(Cc2ccccc2)C(=O)N1`, the Kd was > 4 mM (inactive).
With `CC1(C)Cc2c(C#N)c(N)n(-c3ccccc3)c(=O)c2CO1` the Kd was > 4 mM (inactive).
With `O=C(O)CCC(=O)Nc1ccccn1` the Kd was > 4 mM (inactive).
`Cn1c(O)c(C2=NC(=S)NC2=O)c2ccccc21` was tested, and the Kd was > 4 mM (inactive).
With `OCc1ccc(OC(F)(F)F)cc1` the Kd was > 4 mM (inactive).
`C=C1C2CC[C@@]3(C)[C@H](c4ccoc4)OC(=O)C[C@]13O[C@H]1CC(=O)C(C)(C)[C@H](C(OC(C)=O)C(=O)OC)[C@@]21C` (stereo partly drawn) was tested, and the Kd was > 4 mM (inactive).
